Data published in patent publication US7129073B2, “Regulation of neuronal function through metabotropic glutamate receptor signaling pathways” (The Rockefeller University, priority 2001, dated 2006).
“Also recorded” adds a separate entry of the source.

Columns and labels:
[1] = tested on: voltage-dependent Ca2+ channels; experiment: whole-cell recordings of voltage-dependent Ca2+ channels in dissociated neostriatal neurons; format: cell-based, mouse; conditions: for effect on basal Ca2+ currents / effect on the enhancement of Ca2+ currents by DHPG: CK1–7 100 μM, butyrolactone 25 μM (FIG. 6)
Description: Neostriatal neurons from 3- to 4-week-old mice were acutely dissociated by using procedures similar to those disclosed in Eberwine et al. (1995, Prog. Brain Res. 105:117–126). Whole-cell current recordings used standard voltage-clamp techniques. The internal solution consisted of 180 mM N-methyl-D-glucamine, 40 mM Hepes, 4 mM MgCl2, 0.5 mM 1,2-bis(2-aminophenoxy)ethane-N,N,N′,N′-tetraacetate, 12 mM phosphocreatine, 2 mM Na2ATP, 0.2 mM Na3GTP, 0.1 mM leupeptin (pH 7.2–7.3), 265–270 mosm/liter. The external solution consisted of 135 mM NaCl, 20 mM CsCl, 1 mM MgCl2, 10 mM Hepes, 0.001 mM tetrodotoxin, 5 mM BaCl2, 10 mM glucose (pH 7.3), 300–305 mosm/liter. Recordings were obtained with an Axon Instruments 200B patch clamp amplifier that was controlled and monitored with an IBM PC running PCLAMP™ (v. 8) with a DigiData 1320 series interface (Axon Instruments, Foster City, Calif.). Electrode resistances were typically 2–4 MΩ in the bath. After seal rupture, series resistance (4–10 MΩ) was compensated (70–90%) and periodically monitored. Drugs were applied with a gravity-fed “sewer pipe” system. The array of application capillaries was positioned 250 μm from the cell under study. Solution changes were effected by altering the position of the array with a DC drive system controlled by a microprocessor-based controller (Newport-Klinger, Irvine, Calif.). Data analyses were performed with AXOGRAPH™ (Axon Instruments), […]™ (Albeck Software, Reading, Pa.), and […]™ (Abacus Concepts, Berkeley, Calif.).

HA-tagged CK1ε = experiment: kinase activity of HA-CK1ε immunoprecipitated from transfected N2a cells, DARPP-32 as substrate; format: cell-based
Description: Neuroblastoma N2a cells were cultured in DMEM containing 5% fetal bovine serum (FBS) to 50–60% confluency. Four micrograms of the expression plasmid for HA-CK1ε were transfected into N2a cells in 100 mm dishes using FuGENE™ 6. Twenty-four hours after transfection, cells were incubated in phosphate-buffered Krebs-Henseleit solution (Sigma) for 10 minutes at room temperature. Cells were then incubated with or without CKI inhibitor for 30 minutes before treating with the group I mGluR agonist (S)-3,5-DHPG (100 μM) for 2 minutes. Cells were then lysed in one ml of lysis buffer containing 1% Nonidet P-40 (NP-40), 150 mM NaCl, 0.1% SDS, 50 mM Tris (pH 8.0), 5 mM Na3VO4, 20 mM NaF, 20 mM β-glycerol-phosphate and protease inhibitors. Lysates were centrifuged at 10,000 g and supernatants were used for immunoprecipitation and kinase assay.
For immunoprecipitation of CKI from N2a cells, lysates (1 mg of total protein) were pre-cleared with 5 μl of mouse IgG and 50 μl of protein A agarose for 30 minutes. Five μl of anti-HA antibody were added and samples were incubated for 1 hour at 4° C. Five μl of anti-mouse rabbit IgG and 50 μl of protein A agarose were then added for 45 minutes. Immuno-complexes were washed three times in lysis buffer, two times in kinase buffer (30 mM Hepes (pH 7.5), 7 mM MgCl2, 0.5 mM DTT). CKI assays were performed in a 30 μl assay volume with 2 μg of purified DARPP-32, 500 μM ATP and 5 μCi γ-^32P-ATP. Samples were incubated at 30° C. for 20 minutes, reactions were stopped by addition of SDS-sample buffer, and samples were boiled for 5 minutes. Samples were separated by SDS-PAGE (12% polyacrylamide). SDS-PAGE gels were dried and exposed to Kodak film for autoradiography. Bands were quantified by analysis using a Molecular Dynamics PhosphorImager.
Neuroblastoma N2a cells were cultured to 50–60% confluence in DMEM containing 5% fetal bovine serum. Four μg of the expression plasmid for HA-CK1ε or myc-MM2-CK1ε was transfected into N2a cells in 100 mm dishes using FuGENE6™. Twenty-four hours after transfection, cells were incubated at room temperature in phosphate-buffered Kreb's-Henseleit solution (Sigma) for 10 min and then with or without inhibitors for 30 min before treating with (S)-3,5-DHPG, for 2 min. Cells were then lysed in 1 ml of radio-immunoprecipitation (RIPA) buffer containing 1% NP-40, 150 mM NaCl, 0.1% SDS, 50 mM Tris, pH 8.0, 5 mM Na3VO4, 20 mM NaF, 20 mM β-glycerol-phosphate and protease inhibitors. Lysates were centrifuged at 10,000 g, and supernatants were used for immunoprecipitation and kinase assay.
For immunoprecipitation of CK1ε from N2a cells, lysates (1 mg of total protein) were precleared with 5 μl of mouse IgG (ICN) and 50 μl of protein A agarose for 30 min. Five μl (approximately 2 μg) of anti-HA or anti-myc antibody was added and samples were incubated for 1 h at 4° C. Five μl of anti-mouse rabbit IgG and 50 μl of protein A agarose were then added for 45 min. Immuno-complexes were washed 3 times in lysis buffer and 2 times in kinase buffer (30 mM Hepes, pH 7.5, 7 mM MgCl2, 0.5 mM DTT).
CK1 assays were performed in a 30 μl assay volume with 2 μg of purified DARPP-32, 500 μM ATP and 5 μCi γ-^32P-ATP. Reactions were started by addition of the ATP. Samples were incubated at 30° C. for 10 min and reactions were stopped by addition of SDS-sample buffer and boiled for 5 min. Samples were separated by SDS-PAGE (12% polyacrylamide). SDS-PAGE gels were dried and exposed to Kodak film for autoradiography. Results were quantified using a Molecular Dynamics PHOSPHORIMAGER™. Immunoprecipitation and assay of Cdk5 were performed as disclosed (20).

Structure (SMILES)	effect on basal Ca2+ currents [1]	effect on the enhancement of Ca2+ currents by DHPG ([1]; DHPG 100 μM)	effect on the enhancement of Ca2+ currents by DHPG ([1]; DHPG 100 μM, listed as CK1–7)	effect on basal Ca2+ currents ([1]; listed as CK1–7)	effect of pre-incubation on the ability of DHPG to increase CK1ε activity (HA-tagged CK1ε; 30 min before DHPG 100 μM 2 min, CKI-7 100 μM, L-AP3 100 μM, U73122 10 μM, BAPTA/AM 20 μM, cyclosporin A 1 μM)	time to enhancement of Ca2+ currents ([1]; DHPG) [s]	effect on Ca2+ currents ([1]; DHPG 100 μM, wild-type neurons)	effect of DHPG on Ca2+ channels in neurons from DARPP-32 knock-out mice ([1]; DHPG 100 μM, nine out of ten neurons)	effect on CK1ε activity (HA-tagged CK1ε; DHPG 100 μM for 2 min)	increase in CKI activity compared to the basal level (HA-tagged CK1ε; DHPG 100 μM for 2 minutes)
NCCNS(=O)(=O)c1ccc(Cl)c2ccncc12 [CKI-7]	significant reduction	eliminated	attenuated	reduced	blocked					
N[C@H](C(=O)O)c1cc(O)cc(O)c1 [DHPG, (S)-3,5-Dihydroxyphenylglycine]						≤ 90	enhanced; also recorded: increased	completely eliminated; also recorded: no effect	increase	approximately 2 fold
